One assay addresses T1, HMG-CoA reductase (Rattus norvegicus, UniProt P51639).
T1 construct: In the assay the microsomes are the source of the HMG-CoA reductase enzyme; from tissue; host or cells: rat liver microsomes (male Sprague-Dawley rats)
T1 sequence (P51639 1-887): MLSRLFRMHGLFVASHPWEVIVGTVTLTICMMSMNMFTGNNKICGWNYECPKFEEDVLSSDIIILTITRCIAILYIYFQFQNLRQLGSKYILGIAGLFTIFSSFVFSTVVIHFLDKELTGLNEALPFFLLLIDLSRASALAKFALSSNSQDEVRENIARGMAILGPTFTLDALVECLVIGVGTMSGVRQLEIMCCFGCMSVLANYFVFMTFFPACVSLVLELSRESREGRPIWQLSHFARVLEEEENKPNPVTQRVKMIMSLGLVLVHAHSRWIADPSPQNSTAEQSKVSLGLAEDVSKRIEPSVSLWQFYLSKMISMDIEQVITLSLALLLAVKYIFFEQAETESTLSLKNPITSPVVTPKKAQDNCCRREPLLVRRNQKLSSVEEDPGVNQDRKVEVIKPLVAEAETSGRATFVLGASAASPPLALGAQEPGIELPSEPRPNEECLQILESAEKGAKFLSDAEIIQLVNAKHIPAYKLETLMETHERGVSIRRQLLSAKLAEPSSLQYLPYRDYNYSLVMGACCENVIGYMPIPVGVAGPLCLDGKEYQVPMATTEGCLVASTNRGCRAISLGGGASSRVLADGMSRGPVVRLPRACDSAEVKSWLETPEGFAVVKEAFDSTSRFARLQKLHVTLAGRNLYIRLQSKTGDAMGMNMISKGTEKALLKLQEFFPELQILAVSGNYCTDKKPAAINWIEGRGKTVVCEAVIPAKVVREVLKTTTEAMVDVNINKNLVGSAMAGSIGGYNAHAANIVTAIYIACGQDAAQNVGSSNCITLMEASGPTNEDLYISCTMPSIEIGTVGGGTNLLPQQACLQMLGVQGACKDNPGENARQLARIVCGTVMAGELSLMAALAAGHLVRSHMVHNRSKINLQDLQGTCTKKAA
As to the kind of experiment: Test A. In Vitro Microsomal Assay of HMG-CoA Reductase Inhibition. The note with it: rat liver microsomal suspensions, male Sprague-Dawley rats; read-out: IC50 (concentration of the test substance calculated to produce a 50% inhibition of HMG-CoA reductase activity). Type of assay: biochemical. The method, then: Test A. In Vitro Microsomal Assay of HMG-CoA Reductase Inhibition:
200 μl. aliquots (1.08-1.50 mg./ml.) of rat liver microsomal suspensions, freshly prepared from male Sprague-Dawley rats (150-225 g. body weight), in Buffer A with 10 mmol. dithiothreitol are incubated with 10 μl. of a solution of the test substance in dimethylacetamide and assayed for HMG-CoA reduotase activity as described in Ackerman et al., J. Lipid Res. 18, 408-413 (1977). In the assay the microsomes are the source of the HMG-CoA reductase enzyme which catalyzes the reduction of HMG-CoA to mevalonate. The assay employs a chloroform extraction to separate the product, [^14 C]mevalonolactone, formed by the HMG-CoA reductase reaction from the substrate, [^14 C]HMG-CoA. [^3 H]mevalonolactoneis added as an internal reference. Inhibition of HMG-CoA reductase is calculated from the decrease in specific activity ([^14 C/^3 H]mevalonate) of test groups compared to controls.
IC50 is the concentration of the test substance in
the assay system calculated to produce a 50%
inhibition of HMG-CoA reductase activity.

A further assay has as its system cholesterol biosynthesis. The experiment in a line: Test C: In Vivo Cholesterol Biosynthesis Inhibition Test. On the set-up: species or system rat. The note with it: for change in sterol synthesis (nCi of sterols formed) from test groups compared to controls: at 0.5 mg./kg.; for ED50: Rattus norvegicus, ip, read-out: ED50 (inhibition of sterol synthesis). The source says:
Test C: In Vivo Cholesterol Biosynthesis Inhibition Test: In vivo studies utilize male Wistar Royal Hart rats weighing 150±20 g. which have been kept for 7-10 days on an altered light cycle (6:30 A.M.-6:30 P.M. dark) housed two per cage and fed powdered Purina Rat Chow and water ad libitum. […] Controls receive vehicle alone. […] Two hours after mid-dark, blood samples are obtained under sodium hexobarbitol anesthesia and the serum is separated by centrifugation. […] The [^14 C]digitonides are then counted by liquid scintillation spectrometry. […] Inhibition of sterol synthesis is calculated from the reduction in the nCi of sterols formed from test groups compared to controls.

[1] abbreviates: male Wistar Royal Hart rats, [1-14C]acetate i.p.

We go through five compounds from US4686237A, “Erythro-(E)-7-[3'-C1-3 alkyl-1'-(3",5"-dimethylphenyl)naphth-2'-yl]-3,5-dihydroxyhept-6-enoic acids and derivatives thereof” (Sandoz Pharmaceuticals Corp., priority 1986, dated 1987).

In general, ED50 refers to the midpoint of the dose-response relation.

Read-outs that look alike come from different tables or passages of the source.

For the compound `CCOC(=O)C[C@H](O)C[C@H](O)/C=C/c1c(C)cc2ccccc2c1-c1cc(C)cc(C)c1` (relative stereo) [Example 1, Ethyl erythro-(E)-3,5-dihydroxy-7-[1'-(3",5"-dimethylphenyl)-3-methylnaphth-2'-yl]hept-6-enoate], the IC50 at HMG-CoA reductase is 0.08 µM. The “change in sterol synthesis (nCi of sterols formed) from test groups compared to controls” value in the assay with cholesterol biosynthesis (setting [1]) is listed as -35%.

`Cc1cc(C)cc(-c2c(/C=C/[C@@H](O)C[C@@H](O)CC(=O)O)c(C)cc3ccccc23)c1` (relative stereo) [Example 2, Sodium erythro-(E)-3,5-dihydroxy-7-[1'-(3",5"-dimethylphenyl)-3'-methylnaphth-2'-yl]hept-6-enoate]: the IC50 at HMG-CoA reductase was 0.01 µM. In the assay with cholesterol biosynthesis (setting [1]), the ED50 was 0.3 mg/kg.

On to `Cc1cc(C)cc(-c2c(/C=C/[C@@H]3C[C@@H](O)CC(=O)O3)c(C)cc3ccccc23)c1` (relative stereo) [Example 4, (E)-Trans-6-(2'-[1"-(3"',5"'-dimethylphenyl)-3"-methylnaphth-2"-yl]ethenyl)-4-hydroxy-3,4,5,6-tetrahydro-2H-pyran-2-one], for which, on HMG-CoA reductase, the IC50 is 0.33 µM. In addition, in the assay with cholesterol biosynthesis (setting [1]), the “change in sterol synthesis (nCi of sterols formed) from test groups compared to controls” value is listed as -20%.

`CC[C@H](C)C(=O)O[C@H]1C[C@@H](C)C=C2C=C[C@H](C)[C@H](CC[C@@H]3C[C@@H](O)CC(=O)O3)[C@H]21` [Mevinolin, reference compound]: in the assay with cholesterol biosynthesis, the ED50 was 0.41 mg/kg.

With `CC[C@H](C)C(=O)O[C@H]1CCC=C2C=C[C@H](C)[C@H](CC[C@@H]3C[C@@H](O)CC(=O)O3)[C@H]21` [Compactin, reference compound], the IC50 at HMG-CoA reductase is 0.77 µM. In addition, the ED50 with cholesterol biosynthesis (setting [1]) turned out to be 3.5 mg/kg.
